Measurements from patent US20060240011A1, “Use of nf-kappa b inhibitors for the treatment of mastitis” (priority 2002, published 2006).
Entries after “also recorded” stand apart in the source; their conditions may differ.

Test system: NF-κB
Assay: NF-κB electrophoretic mobility shift assay (EMSA) on cultured, treated milk cells from chronic mastitis-affected cows
Type: cell-based, Holstein-Friesian cows
Conditions: protein extraction 3 hours after treatment, versus untreated cells
Experimental: Isolated milk cells were centrifuged for 10 minutes at 300 g and the pellet was resuspended in 600 μl lysis buffer (0.1% nonidet P-40; 10 mM Tris HCl, pH 7.4; 10 mM NaCl; 3 mM MgCl2; 1 mM EDTA; 2 mM orthovanadate; 1 mM diisopropyl fluorophosphates (DFP); 10 μg/ml leupeptin; 10 μg/ml aprotinin). The cells were vortexed 15 seconds, kept on ice for 5 minutes, and centrifuged for 10 minutes at 300 g. The resulting pellet was resuspended in a KCl buffer (10 mM Hepes, pH 7.4; 400 mM KCl; 10% Glycerol; 2 mM EDTA; 1 mM Ethylene glycol-bis[β-aminoethyl ether]-N, N,N′N′-tetraacetic acid (EGTA); 1% nonidet P-40, 1 mM dithiothreitol (DTT); 2 mM orthovanadate; 10 μg/ml leupeptin; 10 μg/ml aprotinin; 1 mM DFP) and kept at 4° C. for 10 minutes before centrifugation for 15 minutes at 12,000 g. The supernatant was diluted three times and stored at −80° C. until use.
Binding reactions were performed for 30 minutes at room temperature with 5 μg of total protein extracts in 20 mM Hepes (pH 7.9), 10 mM KCl, 0.2 mM EDTA, 20% (v/v) glycerol, 1% (w/v) acetylated bovine serum albumin, 3 μg of poly(dI-dC) (Amersham Pharmacia Biotech, Aylesbury, U.K.), 1 mM DTT (dithiothreitol), 1 mM phenylmethylsulfonyl fluoride, and 100,000 cpm of ^32P-labeled double-stranded oligonucleotide probes. Probes were prepared by annealing the appropriate single-stranded oligonucleotides (Eurogentech, Liège, Belgium) at 65° C. for 10 minutes in 10 mM Tris, 1 mM EDTA, and 10 mM NaCl, followed by slow cooling to room temperature. The probes were labeled by end-filling with the Klenow fragment of E. coli DNA polymerase I (Roche, Mannheim, Germany), with [^32P]dATP and [^32P]dCTP (Dupont-New England Nuclear, Les Ulis, Fance). Labeled probes were purified by spin chromatography on Sephadex G-25 columns (Roche). […] The amount of specific complexes was determined by photodensitometry of the autoradiography. […] The NF-κB activity was assessed by photodensitometry of the specific bands. […]

Structure (SMILES): CCCCCC=CC=C1C(=O)C=C[C@@H]1CC=CCCCC(=O)O [15d-PGJ2, 15-deoxy-Δ.12,14-prostaglandin J2]
- NF-κB activity (DNA-binding activity by EMSA, photodensitometry) (15d-PGJ2 at 40 μM, 50 μM, 60 μM and 80 μM): reduced NF-κB activity; also recorded: inhibit NF-κB activation

Structure (SMILES): CN1C(=O)[C@]23CC4=CC=C[C@H](O)[C@H]4N2C(=O)[C@@]1(CO)SS3 [glyotoxine, gliotoxin]
- NF-κB activity (DNA-binding activity by EMSA, photodensitometry) (gliotoxine at 1 μl/ml): reduced NF-κB activity
- NF-κB activity (DNA-binding activity by EMSA, photodensitometry) (gliotoxine at 1 μl/ml, listed as gliotoxine): inhibit NF-κB activation
